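Test compounds were applied to cells in 96-well plates for 48 hours at 5 doses.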 Activity calls are given as the source filed them. Rule as the data show it: active = GI50 below about 0.43 µM; inactive = the rest.
Legend:
Assay in all cases: DTP human tumour cell line panel, 48 h
UACC-257 melanoma = test system: UACC-257 melanoma
SN12C renal = test system: SN12C renal
HL-60(TB) leukemia = test system: HL-60(TB) leukemia
LOX IMVI melanoma = test system: LOX IMVI melanoma
K-562 leukemia = test system: K-562 leukemia
SNB-75 CNS = test system: SNB-75 CNS
T-47D breast = test system: T-47D breast
NCI/ADR-RES ovarian = test system: NCI/ADR-RES ovarian
MDA-MB-435 = test system: MDA-MB-435
M14 melanoma = test system: M14 melanoma
HCC-2998 colon = test system: HCC-2998 colon
NCI-H226 lung = test system: NCI-H226 lung
HS 578T breast = test system: HS 578T breast
OVCAR-5 ovarian = test system: OVCAR-5 ovarian
KM12 colon = test system: KM12 colon
MOLT-4 leukemia = test system: MOLT-4 leukemia
ACHN renal = test system: ACHN renal
IGROV1 ovarian = test system: IGROV1 ovarian
SW-620 colon = test system: SW-620 colon
EKVX NSCLC = test system: EKVX NSCLC
A549 NSCLC = test system: A549 NSCLC
SR leukemia = test system: SR leukemia
SK-OV-3 ovarian = test system: SK-OV-3 ovarian
NCI-H23 lung = test system: NCI-H23 lung
HOP-92 NSCLC = test system: HOP-92 NSCLC
CAKI-1 renal = test system: CAKI-1 renal
SF-295 CNS = test system: SF-295 CNS
MCF7 breast = test system: MCF7 breast
MALME-3M melanoma = test system: MALME-3M melanoma
UO-31 renal = test system: UO-31 renal
CCRF-CEM leukemia = test system: CCRF-CEM leukemia
SK-MEL-28 melanoma = test system: SK-MEL-28 melanoma
MDA-N = test system: MDA-N
NCI-H460 lung = test system: NCI-H460 lung
HT29 colon = test system: HT29 colon
SF-539 CNS = test system: SF-539 CNS
SK-MEL-2 melanoma = test system: SK-MEL-2 melanoma
RPMI-8226 leukemia = test system: RPMI-8226 leukemia
SNB-19 CNS = test system: SNB-19 CNS
OVCAR-8 ovarian = test system: OVCAR-8 ovarian
BT-549 breast = test system: BT-549 breast
786-0 renal = test system: 786-0 renal
A498 renal = test system: A498 renal
TK-10 renal = test system: TK-10 renal
DU-145 prostate = test system: DU-145 prostate
SF-268 CNS = test system: SF-268 CNS
HCT-116 colon = test system: HCT-116 colon
OVCAR-4 ovarian = test system: OVCAR-4 ovarian
HCT-15 colon = test system: HCT-15 colon
PC-3 prostate = test system: PC-3 prostate
COLO 205 colon = test system: COLO 205 colon
OVCAR-3 ovarian = test system: OVCAR-3 ovarian

Measured: outcome

COC(=O)c1nc2c(C)c(O)c(Oc3c(C)c(O)c(O)c([C@H](C)CCC=C(C)C)c3O)c([C@H](C)CCC=C(C)C)c2o1
inactive: all assays above

From PubChem BioAssay (NCI)
